Article PMC10974052, “Synthesis, Computational Study, and In Vitro α-Glucosidase Inhibitory Action of 1,3,4-Thiadiazole Derivatives of 3-Aminopyridin-2(1H)-ones” (Pharmaceuticals, 2024)

Test system: not given
Assay: not given
Conditions: not given
For `Cc1cc(C)c(NC(=O)c2nnc(CCCC(=O)O)s2)c(=O)[nH]1` [7a, 4-(5-((4,6-Dimethyl-2-oxo-1,2-dihydropyridin-3-yl)carbamoyl)-1,3,4-thiadiazol-2-yl)butanoic acid], the melting point was 248 to 250 °C. Work on `Cc1cc(-c2ccccc2)c(NC(=O)c2nnc(CCCC(=O)O)s2)c(=O)[nH]1` [7b, 4-(5-((6-Methyl-2-oxo-4-phenyl-1,2-dihydropyridin-3-yl)carbamoyl)-1,3,4-thiadiazol-2-yl)butanoic acid] yielded a melting point of 243 to 246 °C. For `Cc1cc(-c2cccs2)c(NC(=O)c2nnc(CCCC(=O)O)s2)c(=O)[nH]1` [7c, 4-(5-((6-Methyl-2-oxo-4-(thiophen-2-yl)-1,2-dihydropyridin-3-yl)carbamoyl)-1,3,4-thiadiazol-2-yl)butanoic acid], the melting point was 197 to 200 °C. With `Cc1cc(C)c(NC(=O)c2nnc(/C=C/C(=O)O)s2)c(=O)[nH]1` [8a, (E)-3-(5-((4,6-Dimethyl-2-oxo-1,2-dihydropyridin-3-yl)carbamoyl)-1,3,4-thiadiazol-2-yl)acrylic acid] the melting point was 261 to 263 °C. With `Cc1cc(-c2ccccc2)c(NC(=O)c2nnc(/C=C/C(=O)O)s2)c(=O)[nH]1` [8b, (E)-3-(5-((6-Methyl-2-oxo-4-phenyl-1,2-dihydropyridin-3-yl)carbamoyl)-1,3,4-thiadiazol-2-yl)acrylic acid] the melting point was 199 to 202 °C. Work on `Cc1cc(-c2cccs2)c(NC(=O)c2nnc(/C=C/C(=O)O)s2)c(=O)[nH]1` [8c, (E)-3-(5-((6-Methyl-2-oxo-4-(thiophen-2-yl)-1,2-dihydropyridin-3-yl)carbamoyl)-1,3,4-thiadiazol-2-yl)acrylic acid] yielded a melting point of 247 to 250 °C. Compound `Cc1cc(C)c(NC(=O)c2nnc(-c3ccccc3C(=O)O)s2)c(=O)[nH]1` [9a, 2-(5-((4,6-Dimethyl-2-oxo-1,2-dihydropyridin-3-yl)carbamoyl)-1,3,4-thiadiazol-2-yl)benzoic acid] has a melting point of 315 to 318 °C. With `Cc1cc(-c2ccccc2)c(NC(=O)c2nnc(-c3ccccc3C(=O)O)s2)c(=O)[nH]1` [9b, 2-(5-((6-Methyl-2-oxo-4-phenyl-1,2-dihydropyridin-3-yl)carbamoyl)-1,3,4-thiadiazol-2-yl)benzoic acid] the melting point was 176 to 180 °C. Work on `Cc1cc(-c2cccs2)c(NC(=O)c2nnc(-c3ccccc3C(=O)O)s2)c(=O)[nH]1` [9c, 2-(5-((6-Methyl-2-oxo-4-(thiophen-2-yl)-1,2-dihydropyridin-3-yl)carbamoyl)-1,3,4-thiadiazol-2-yl)benzoic acid] yielded a melting point of 275 to 277 °C.

Target: α-glucosidase (Saccharomyces cerevisiae, UniProt P53341)
Sequence (P53341 whole entry): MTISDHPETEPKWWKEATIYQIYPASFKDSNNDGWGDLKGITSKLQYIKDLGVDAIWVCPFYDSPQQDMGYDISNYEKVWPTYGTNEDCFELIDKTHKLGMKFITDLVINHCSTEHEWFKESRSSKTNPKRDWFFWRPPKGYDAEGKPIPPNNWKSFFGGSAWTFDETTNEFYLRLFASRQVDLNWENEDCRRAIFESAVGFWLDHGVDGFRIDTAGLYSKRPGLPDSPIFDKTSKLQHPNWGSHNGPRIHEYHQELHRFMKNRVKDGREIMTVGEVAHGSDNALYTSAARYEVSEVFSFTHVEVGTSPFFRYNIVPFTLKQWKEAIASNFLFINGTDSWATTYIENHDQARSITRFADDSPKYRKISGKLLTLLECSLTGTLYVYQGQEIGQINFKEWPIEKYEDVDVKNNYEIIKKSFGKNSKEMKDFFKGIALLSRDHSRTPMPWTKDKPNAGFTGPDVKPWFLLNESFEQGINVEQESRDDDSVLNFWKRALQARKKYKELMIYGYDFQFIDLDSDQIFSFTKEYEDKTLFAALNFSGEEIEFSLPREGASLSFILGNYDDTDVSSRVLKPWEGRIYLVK
Assay: In vitro α-glucosidase inhibition assay (p-NPG hydrolysis, 405 nm)
Format: biochemical
Set-up: inhibition: dose or concentration left out as unconfirmed
Conditions: read-out: The Degree of Inhibition of α-Glucosidase Activity, tested compounds at a concentration of 15 mM (Table 1 title); mean ± standard error of the mean, triplicate
Protocol: Antidiabetic activity was assessed by the degree of inhibition of α-glucosidase activity by the test substances.
The study of the degree of α-glucosidase activity inhibition by the test compounds was performed using a standard method with minor modifications.
Study of the degree of inhibition of α-glucosidase activity by test compounds [25].
The principle of the method is as follows: the α-glucosidase enzyme hydrolyzes 4-Nitrophenyl α-D-glucopyranoside to form a colorimetric product (405 nm), the concentration of which is proportional to the α-glucosidase activity. […] The resulting mixture was incubated for 15 min at +37 °C, then 200 μL of a solution of 4-Nitrophenyl α-D-glucopyranoside (p-Nitrophenyl α-D-glucopyranoside, P-NPG) (5 mM) was added, and then the mixture was incubated at +37 °C for 20 min. Then, the reaction was stopped by adding 500 μL of sodium carbonate (0.1 M). A solution of α-glucosidase (1 U/mL) was used as a blank. We used 200 μL of DMSO in triplicate as a negative control. […] At the same time, a negative control was set without addition of test compounds. All samples were studied in triplicate. Inhibitory activity was expressed as a percentage (%) according to the degree of inhibition of α-glucosidase in comparison with the negative control. It was calculated by the following formula:
Inhibitory activity (%) = (1 − As/Ac)∗100%, where As is the optical density of the test compound, and Ac is the optical density of control.
The IC50 was determined from the graph of enzyme activity changes depending on the sample concentration.
Statistical processing of the results was carried out using the “Excel 365 v2401” program. […] The α-amylase and α-glucosidase enzymes determine the extent to which glucose enters the bloodstream from the gastrointestinal tract. Inhibition of these enzymes can be useful for lowering postprandial glucose levels.
`Cc1cc(-c2ccccc2)c(NC(=O)c2nnc(-c3ccccc3C(=O)O)s2)c(=O)[nH]1` [9′b] showed an inhibition at 15000 µM of 95%.

Same assay, conditions: read-out: The Degree of Inhibition of α-Glucosidase Activity; mean ± standard error of the mean, triplicate
For `Cc1cc(C)c(NC(=O)c2nnc(CCC(=O)O)s2)c(=O)[nH]1` [5′a], the inhibition was 36.3 ± 4.8%. Compound `Cc1cc(-c2ccccc2)c(NC(=O)c2nnc(CCC(=O)O)s2)c(=O)[nH]1` [5′b] has an inhibition of 72.4 ± 2.3%. Work on `Cc1cc(-c2cccs2)c(NC(=O)c2nnc(CCC(=O)O)s2)c(=O)[nH]1` [5′c] yielded an inhibition of 38.3 ± 2.4%. For `Cc1cc(C)c(NC(=O)c2nnc(CCCC(=O)O)s2)c(=O)[nH]1` [7′a], the inhibition was 34.8 ± 4.2%. `Cc1cc(-c2ccccc2)c(NC(=O)c2nnc(CCCC(=O)O)s2)c(=O)[nH]1` [7′b] gave an inhibition of 95 ± 0.2%. With `Cc1cc(-c2cccs2)c(NC(=O)c2nnc(CCCC(=O)O)s2)c(=O)[nH]1` [7′c] the inhibition was 93.9 ± 0.4%. `Cc1cc(C)c(NC(=O)c2nnc(/C=C/C(=O)O)s2)c(=O)[nH]1` [8′a] gave an inhibition of 14 ± 3%. For `Cc1cc(-c2ccccc2)c(NC(=O)c2nnc(/C=C/C(=O)O)s2)c(=O)[nH]1` [8′b], the inhibition was 68.2 ± 4.7%. `Cc1cc(-c2cccs2)c(NC(=O)c2nnc(/C=C/C(=O)O)s2)c(=O)[nH]1` [8′c] showed an inhibition of 8 ± 3%. `Cc1cc(C)c(NC(=O)c2nnc(-c3ccccc3C(=O)O)s2)c(=O)[nH]1` [9′a] gave an inhibition of 33.6 ± 6.1%. Compound `Cc1cc(-c2cccs2)c(NC(=O)c2nnc(-c3ccccc3C(=O)O)s2)c(=O)[nH]1` [9′c] has an inhibition of 21 ± 2.2%.

Same assay, conditions: tested compounds at a concentration of 15 mM (Table 1 title); mean ± standard error of the mean, triplicate
In the case of `C[C@H]1O[C@H](O[C@H]2[C@H](O)[C@@H](O)[C@@H](O[C@H]3[C@H](O)[C@@H](O)C(O)O[C@@H]3CO)O[C@@H]2CO)[C@H](O)[C@@H](O)[C@@H]1N[C@H]1C=C(CO)[C@@H](O)[C@H](O)[C@H]1O` (stereo partly shown) [Acarbose, reference compound], the “The Degree of Inhibition of α-Glucosidase Activity” value is reported as 49.5 ± 1.8%.
